Results on 34 compounds are retold here after US9321767B2, “Azabenzimidazoles as respiratory syncytial virus antiviral agents” (JANSSEN SCIENCES IRELAND UC, priority 2010, dated 2016).

Like-named read-outs stand apart in the source and are kept apart here.

The test system of one series is rgRSV224 virus. As to the kind of experiment: microbe, parasite or virus in culture. The note with it: for SI CC50/EC50: ratio of CC50 (HeLa cytotoxicity) to EC50 (RSV); for EC50: read-out: WT activity EC50. In kind it is cell-based, respiratory syncytial virus (RSV). As to the method: (§1) Black 96-well clear-bottom microtiter plates (Corning, Amsterdam, The Netherlands) were filled in duplicate using a customized robot system with serial 4-fold dilutions of compound in a final volume of 50 μl culture medium [RPMI medium without phenol red, 10% FBS, 0.04% gentamycin (50 mg/mL) and 0.5% DMSO]. Then, 100 μl of a HeLa cell suspension (5×10^4 cells/mL) in culture medium was added to each well followed by the addition of 50 μl rgRSV224 (MOI=0.02) virus in culture medium using a multidrop dispenser (Thermo Scientific, Erembodegem, Belgium). rgRSV224 virus is an engineered virus that includes an additional GFP gene (Hallak et al, 2000) and was in-licensed from the NIH (Bethesda, Md., USA). Medium, virus- and mock-infected controls were included in each test. Cells were incubated at 37° C. in a 5% CO2 atmosphere. Three days post-virus exposure, viral replication was quantified by measuring GFP expression in the cells by a MSM laser microscope (Tibotec, Beerse, Belgium). The EC50 was defined as the 50% inhibitory concentration for GFP expression. In parallel, compounds were incubated for three days in a set of white 96-well microtitier plates (Corning) and the cytotoxicity of compounds in HeLa cells was determined by measuring the ATP content of the cells using the ATPlite kit (PerkinElmer, Zaventem, Belgium) according to the manufacturer's instructions. The CC50 was defined as the 50% concentration for cytotoxicity.

The next series relates to HeLa cells. As to the kind of experiment: Cytotoxicity in HeLa cells, ATP content (ATPlite kit). In kind it is cell-based. The note with it: HeLa cells, three days incubation, ATP content. As to the method: as §1
The mark [1] stands for this setting: rgRSV224 in HeLa cells, three days post-virus exposure, GFP expression.
Setting [2] is: human respiratory syncytial virus, HeLa, 72 h.

Broadly, the EC50 is the midpoint of the concentration-response curve. Turning to `O=c1n(Cc2nc3ncccc3n2CCCC(F)(F)F)c2cnccc2n1CC(F)(F)F` [Compound 72], the “SI CC50/EC50” value with rgRSV224 virus is on record as more than 2766. The 50% effective concentration (EC50) in the series with rgRSV224 virus (setting [1]) worked out at 3.61 nM.

As for `O=c1n(Cc2nc3ncccc3n2CCCc2ccccc2)c2cc(F)ccc2n1C1CC1` [Compound 93], the “SI CC50/EC50” value in the series with rgRSV224 virus is more than 3176. In addition, the 50% effective concentration (EC50) in the series on rgRSV224 virus (setting [1]) turned out to be 31.5 nM.

Consider `CC(C)CCn1c(Cn2c(=O)n(CC(F)(F)F)c3ccncc32)nc2nc(Cl)ccc21` [Compound 90], for which the “SI CC50/EC50” value with rgRSV224 virus worked out at 36156. For the same compound, the concentration giving a half-maximal response (EC50) in the series with rgRSV224 virus (setting [1]) stood at 2.6 nM.

`CC(C)CCn1c(Cn2c(=O)n(C3CC3)c3ccccc32)nc2cc(Br)cnc21` [Compound 30, 1-((6-bromo-3-isopentyl-3H-imidazo[4,5-b]pyridin-2-yl)methyl)-3-cyclopropyl-1H-benzo[d]imidazol-2(3H)-one] registered a TOX-HELA_EC50 with HeLa cells of more than 9.84 µM.

As for `O=c1n(Cc2nc3nc(F)ccc3n2CCCC(F)(F)F)c2cnccc2n1C1CC1` [Compound 69], the “SI CC50/EC50” value in the series on rgRSV224 virus was more than 1318. In addition, in the series on rgRSV224 virus (setting [1]), the concentration giving a half-maximal response (EC50) turned out to be 75.8 nM.

As for `O=C(NCCCCn1c(Cn2c(=O)n(C3CC3)c3ccncc32)nc2nc(Cl)ccc21)OCCF` [Compound 76], the “SI CC50/EC50” value with rgRSV224 virus was more than 24518. In addition, the concentration for a half-maximal effect (EC50) with rgRSV224 virus (setting [1]) was 4.08 nM.

Turning to `CC(=O)OCCCCn1c(Cn2c(=O)n(C3CC3)c3ccncc32)nc2nc(Cl)ccc21` [Compound 64], the “SI CC50/EC50” value with rgRSV224 virus is reported as more than 18058. Further, the EC50 in the series on rgRSV224 virus (setting [1]) turned out to be 5.54 nM.

In the case of `CC(C)CCn1c(Cn2c(=O)n(C3CC3)c3ccncc32)nc2nc(C(=N)N)ccc21` [Compound 105], the EC50 with rgRSV224 virus (setting [2]) worked out at 0.316 nM. The “SI CC50/EC50” value with rgRSV224 virus is recorded as more than 330179.

Turning to `COC(=O)NCCCCn1c(Cn2c(=O)n(C3CC3)c3ccncc32)nc2nc(Cl)ccc21` [Compound 68], the “SI CC50/EC50” value in the series on rgRSV224 virus is recorded as more than 12208. Further, in the series with rgRSV224 virus (setting [1]), the EC50 was 8.19 nM.

For the compound `O=c1n(Cc2nc3ncccc3n2CCCC(F)F)c2cnccc2n1C1CC1` [Compound 43, 1-cyclopropyl-3-((1-(4,4-difluorobutyl)-1H-imidazo[4,5-b]pyridin-2-yl)methyl)-1H-imidazo[4,5-c]pyridin-2(3H)-one], the EC50 with rgRSV224 virus (setting [2]) was 7.91 nM. The “SI CC50/EC50” value in the series on rgRSV224 virus is recorded as 7161.

On to `O=c1n(Cc2nc3ncccc3n2CCCOC(F)(F)F)c2cnccc2n1C1CC1` [Compound 70], for which the “SI CC50/EC50” value in the series on rgRSV224 virus is on record as more than 9116. Also, the EC50 in the series on rgRSV224 virus (setting [1]) was determined as 11 nM.

Take `O=c1n(Cc2nc3nc(Cl)ccc3n2CCCC(F)(F)F)c2cc(F)ccc2n1CC(F)(F)F` [Compound 87]: the “SI CC50/EC50” value with rgRSV224 virus was more than 49069. The EC50 in the series with rgRSV224 virus (setting [1]) came to 2.04 nM.

In the case of `O=c1n(Cc2nc3ncccc3n2CCCc2ccccn2)c2cnccc2n1C1CC1` [Compound 94], the “SI CC50/EC50” value in the series on rgRSV224 virus is listed as more than 748. For the same compound, the EC50 with rgRSV224 virus (setting [1]) was found to be 126 nM.

For the compound `CC(C)OC(=O)NCCCCn1c(Cn2c(=O)n(C3CC3)c3ccncc32)nc2ncccc21` [Compound 81], in the series with rgRSV224 virus, the “SI CC50/EC50” value is more than 1380. The EC50 in the series on rgRSV224 virus (setting [1]) stood at 72.4 nM.

For the compound `NC(=O)NCCCCn1c(Cn2c(=O)n(C3CC3)c3ccncc32)nc2nc(Cl)ccc21` [Compound 74], the “SI CC50/EC50” value in the series on rgRSV224 virus is more than 1997. The EC50 in the series on rgRSV224 virus (setting [1]) was 5.01 nM.

As for `O=C(Nc1ccc(F)c(Cl)c1)OCCCCn1c(Cn2c(=O)n(C3CC3)c3ccncc32)nc2nc(Cl)ccc21` [Compound 84], the “SI CC50/EC50” value with rgRSV224 virus came to 354. For the same compound, in the series with rgRSV224 virus (setting [1]), the EC50 stood at 18.9 nM.

Regarding `N#CCCCn1c(Cn2c(=O)n(C3CC3)c3ccncc32)nc2ccc(Cl)nc21` [Compound 49], the EC50 with rgRSV224 virus (setting [2]) amounted to 1450 nM. For the same compound, in the series with rgRSV224 virus, the “SI CC50/EC50” value is recorded as more than 68.

Turning to `CC(C)(CO)CCn1c(Cn2c(=O)n(C3CC3)c3ccncc32)nc2nc(Cl)ccc21` [Compound 88], in the series with rgRSV224 virus, the “SI CC50/EC50” value is reported as more than 4517. In the series with rgRSV224 virus (setting [1]), the EC50 was found to be 11.1 nM.

Regarding `O=C1c2ccccc2C(=O)N1CCCCn1c(Cn2c(=O)n(C3CC3)c3ccncc32)nc2nc(Cl)ccc21` [Compound 66], the “SI CC50/EC50” value in the series on rgRSV224 virus is on record as more than 16939. The EC50 in the series on rgRSV224 virus (setting [1]) was 5.9 nM.

Regarding `CC(C)CCn1c(Cn2c(=O)n(CC(F)(F)F)c3ccc(F)cc32)nc2nc(Cl)ccc21` [Compound 92], the “SI CC50/EC50” value in the series on rgRSV224 virus stood at 13572. The half-maximal effective concentration (EC50) in the series with rgRSV224 virus (setting [1]) stood at 6.72 nM.

In the case of `COC(=O)c1nccc2c1n(Cc1nc3nc(Cl)ccc3n1CCCCO)c(=O)n2C1CC1` [Compound 62], the EC50 with rgRSV224 virus (setting [2]) is 294 nM. Moreover, in the series on rgRSV224 virus, the “SI CC50/EC50” value is more than 339.

Turning to `O=c1n(Cc2nc3ncccc3n2CCCCF)c2cnccc2n1CC(F)(F)F` [Compound 85], the “SI CC50/EC50” value in the series with rgRSV224 virus is 1436. Moreover, the EC50 with rgRSV224 virus (setting [1]) worked out at 8.54 nM.

As for `CC1=C(NCCCCn2c(Cn3c(=O)n(C4CC4)c4ccncc43)nc3nc(Cl)ccc32)c2ccccc2S1(=O)=O` [Compound 80], the “SI CC50/EC50” value with rgRSV224 virus was more than 9628. Moreover, the EC50 in the series on rgRSV224 virus (setting [1]) is 10.4 nM.

Turning to `O=C(NCCCCn1c(Cn2c(=O)n(C3CC3)c3ccncc32)nc2nc(Cl)ccc21)OC1CCCC1` [Compound 82], in the series on rgRSV224 virus, the “SI CC50/EC50” value amounted to 5649. In addition, the EC50 with rgRSV224 virus (setting [1]) stood at 17.1 nM.

Consider `O=c1n(Cc2nc3ncccc3n2CCCC(F)(F)F)c2cc(F)ccc2n1CC(F)(F)F` [Compound 89], for which, in the series with rgRSV224 virus, the “SI CC50/EC50” value was more than 2037. For the same compound, in the series on rgRSV224 virus (setting [1]), the EC50 was 49.1 nM.

`COc1ccc(NC(=O)OCCCCn2c(Cn3c(=O)n(C4CC4)c4ccncc43)nc3nc(Cl)ccc32)cc1` [Compound 79]: the “SI CC50/EC50” value with rgRSV224 virus stood at 1711. Also, the EC50 in the series on rgRSV224 virus (setting [1]) came to 23.3 nM.

Consider `O=c1n(Cc2nc3ncccc3n2CCCc2ccccc2)c2cnccc2n1C1CC1` [Compound 91], for which, in the series on rgRSV224 virus, the “SI CC50/EC50” value was more than 8223. Further, the EC50 with rgRSV224 virus (setting [1]) is 12.2 nM.

On to `O=C(Nc1ccc(Cl)cc1)OCCCCn1c(Cn2c(=O)n(C3CC3)c3ccncc32)nc2nc(Cl)ccc21` [Compound 86], for which, in the series with rgRSV224 virus, the “SI CC50/EC50” value amounted to 263. In addition, the 50% effective concentration (EC50) in the series on rgRSV224 virus (setting [1]) was 36.8 nM.

For `CC(C)C(=O)OCCCCn1c(Cn2c(=O)n(C3CC3)c3ccncc32)nc2nc(Cl)ccc21` [Compound 65], the “SI CC50/EC50” value with rgRSV224 virus was more than 18110. In addition, the EC50 with rgRSV224 virus (setting [1]) was found to be 5.52 nM.

With `O=C(NC1CCCC1)OCCCCn1c(Cn2c(=O)n(C3CC3)c3ccncc32)nc2nc(Cl)ccc21` [Compound 78], the “SI CC50/EC50” value with rgRSV224 virus amounted to 14406. For the same compound, in the series on rgRSV224 virus (setting [1]), the concentration for a half-maximal effect (EC50) stood at 5.73 nM.

Consider `O=c1n(Cc2nc3nc(Cl)ccc3n2CCCC(F)(F)F)c2cnccc2n1CC(F)(F)F` [Compound 71], for which, in the series with rgRSV224 virus, the “SI CC50/EC50” value is recorded as more than 108383. Also, the EC50 in the series on rgRSV224 virus (setting [1]) amounted to 0.923 nM.

As for `CC(O)CCCn1c(Cn2c(=O)n(C3CC3)c3ccncc32)nc2nc(Cl)ccc21` (stereo not shown) [Compound 67, 3-{[5-chloro-1-(4-hydroxypentyl)-1H-imidazo[4,5-b]pyridin-2-yl]methyl}-1-cyclopropyl-1,3-dihydro-2H-imidazo[4,5-c]pyridin-2-one], the concentration giving a half-maximal response (EC50) in the series with rgRSV224 virus (setting [2]) came out at 7.91 nM. In the series on rgRSV224 virus, the “SI CC50/EC50” value is recorded as more than 12643.

For the compound `CC(C)(O)CCCn1c(Cn2c(=O)n(C3CC3)c3ccncc32)nc2nc(Cl)ccc21` [Compound 75, 3-((5-chloro-1-(4-hydroxy-4-methylpentyl)-1H-imidazo[4,5-b]pyridin-2-yl)methyl)-1-cyclopropyl-1H-imidazo[4,5-c]pyridin-2 (3H)-one], the EC50 in the series with rgRSV224 virus (setting [2]) was determined as 1.58 nM. Also, the “SI CC50/EC50” value with rgRSV224 virus is more than 63325.

Turning to `O=C(Nc1ccc(F)cc1C(F)(F)F)OCCCCn1c(Cn2c(=O)n(C3CC3)c3ccncc32)nc2nc(Cl)ccc21` [Compound 83], the “SI CC50/EC50” value with rgRSV224 virus is reported as 4731. The EC50 in the series with rgRSV224 virus (setting [1]) was 14 nM.
